In patent US20260217735A1, “HETEROCYCLES AND USES THEREOF” (Kumquat Biosciences Inc., priority 2023, published 2026) one finds IC50 data, which are given here for twelve molecules.

In experiment [1] the target is T1, KRAS G12D (Homo sapiens, UniProt P01116, G12D).
T1 construct: made in house; host or cells: E. coli, e.g. BL21 (DE3)
Briefly: HTRF assay, KRAS G12D interaction with SOS1. It is filed as biochemical. Conditions: bins <500 nM / 500 nM to 1000 nM, read-out: Inhibition of KRAS G12D (IC50). In general terms: Time-resolved FRET reads energy transfer from a long-lived donor to a nearby acceptor.

The target in experiment [2] is T2, KRAS WT (Homo sapiens, UniProt P01116).
T2 construct: made in house; host or cells: E. coli, e.g. BL21 (DE3)
T2 sequence (P01116 1-188 isoform P01116-2): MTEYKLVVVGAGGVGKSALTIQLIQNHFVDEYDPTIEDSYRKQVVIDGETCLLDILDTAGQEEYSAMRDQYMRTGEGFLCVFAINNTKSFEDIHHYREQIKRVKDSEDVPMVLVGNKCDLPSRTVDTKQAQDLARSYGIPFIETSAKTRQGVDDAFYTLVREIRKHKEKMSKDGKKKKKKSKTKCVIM
Briefly: HTRF assay, wildtype KRAS interaction with SOS1. It counts as biochemical. Conditions: bins <500 nM / 500 nM to 1000 nM, read-out: Inhibition of KRAS WT (IC50).

The target in experiment [3] is T3, KRAS G12V (Homo sapiens, UniProt P01116, G12V).
T3 construct: made in house; host or cells: E. coli, e.g. BL21 (DE3)
T3 sequence (P01116 1-188 isoform P01116-2 G12V): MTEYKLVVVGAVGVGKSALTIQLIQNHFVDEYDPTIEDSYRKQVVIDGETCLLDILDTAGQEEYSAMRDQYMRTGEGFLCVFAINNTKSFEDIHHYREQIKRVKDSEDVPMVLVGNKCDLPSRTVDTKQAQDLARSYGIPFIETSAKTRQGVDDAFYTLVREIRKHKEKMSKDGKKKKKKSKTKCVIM
Description: HTRF assay, KRAS G12V interaction with SOS1. It is filed as biochemical. The following applies: bins <500 nM / 500 nM to 1000 nM, read-out: Inhibition of KRAS G12V (IC50).

In experiment [4] the target is T4, KRAS G12S (Homo sapiens, UniProt P01116, G12S).
T4 construct: made in house; host or cells: E. coli, e.g. BL21 (DE3)
T4 sequence (P01116 1-188 isoform P01116-2 G12S): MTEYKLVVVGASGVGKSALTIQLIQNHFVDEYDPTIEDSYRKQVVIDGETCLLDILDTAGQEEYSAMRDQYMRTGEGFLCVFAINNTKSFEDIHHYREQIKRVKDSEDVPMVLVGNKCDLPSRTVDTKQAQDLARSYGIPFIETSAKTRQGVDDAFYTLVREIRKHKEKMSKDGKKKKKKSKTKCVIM
Briefly: HTRF assay, KRAS G12S interaction with SOS1. It is filed as biochemical. The following applies: bins <500 nM / 500 nM to 1000 nM, read-out: Inhibition of KRAS G12S (IC50).

Experiment [5] relates to MiaPaca2 cells. Description: Ras cellular assay, growth of cells with K-Ras G12C mutation. Conditions: Homo sapiens, MIA PaCa-2; cell proliferation assay; bins ≤500 nM / >500 nM; read-out: Inhibition of MiaPaca2 Cells (IC50). It counts as cell-based. The procedure, abridged: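 MIA PaCa-2 cells (K-Ras G12C, about 125-150 cells/well) grown in 0.25% soft agar over a 0.6% agar base, compound added on day 2 at 0.3% final DMSO. Growth read on day 10 by Cell Titer 96 AQueous absorbance (490 nm, reference 660 nm) against time-zero wells; IC50 from four-parameter fit.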

T1 sequence (P01116 1-188 isoform P01116-2 G12D): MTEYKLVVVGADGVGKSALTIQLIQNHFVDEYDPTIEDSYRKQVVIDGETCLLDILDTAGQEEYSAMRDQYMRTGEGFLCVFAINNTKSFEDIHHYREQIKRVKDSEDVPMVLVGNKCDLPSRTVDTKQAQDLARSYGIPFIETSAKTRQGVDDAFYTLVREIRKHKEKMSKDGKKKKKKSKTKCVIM

In general, IC50 refers to the concentration that inhibits the measured activity by half. Turning to `Cc1c(C#N)ncn1C(=O)N1CC[C@@]12CCN(c1nc(OC[C@@]34CCCN3C[C@H](F)C4)nc3c(F)c(-c4ccc(F)c5sc(N)c(C#N)c45)c(Cl)cc13)C2` [Compound 121, 1-((4R)-6-(7-(2-amino-3-cyano-7-fluorobenzo[b]thiophen-4-yl)-6-chloro-8-fluoro-2-(((2R,7aS)-2-fluorotetrahydro-1H-pyrrolizin-7a(5H)-yl)methoxy)quinazolin-4-yl)-1,6-diazaspiro[3.4]octane-1-carbonyl)-5-methyl-1H-imidazole-4-carbonitrile], the 50% inhibitory concentration (IC50) in experiment [1] is less than 500 nM; in experiment [2], less than 500 nM; in experiment [3], less than 500 nM; in experiment [4], less than 500 nM; in experiment [5] it was not above 500 nM.
`Cc1nccn1C(=O)N1CC2(CCN(c3nc(OC[C@@]45CCCN4C[C@H](F)C5)nc4c(F)c(-c5ccc(F)c6sc(N)c(C#N)c56)c(Cl)cc34)C2)C1` [Compound 123, 2-amino-4-(6-chloro-8-fluoro-2-(((2R,7aS)-2-fluorotetrahydro-1H-pyrrolizin-7a(5H)-yl)methoxy)-4-(2-(2-methyl-1H-imidazole-1-carbonyl)-2,6-diazaspiro[3.4]octan-6-yl)quinazolin-7-yl)-7-fluorobenzo[b]thiophene-3-carbonitrile]: the IC50 was less than 500 nM in experiment [1]; less than 500 nM in experiment [2]; less than 500 nM in experiment [3]; less than 500 nM in experiment [4]; not above 500 nM in experiment [5].
Take `C[C@@H]1[C@H](N(C)c2nc(OC[C@@]34CCCN3C[C@H](F)C4)nc3c(F)c(-c4ccc(F)c5sc(N)c(C#N)c45)c(Cl)cc23)CCN1C(=O)n1ccnc1` [Compound 124, 4-(4-(((2R,3R)-1-(1H-imidazole-1-carbonyl)-2-methylpyrrolidin-3-yl)(methyl)amino)-6-chloro-8-fluoro-2-(((2R,7aS)-2-fluorotetrahydro-1H-pyrrolizin-7a(5H)-yl)methoxy)quinazolin-7-yl)-2-amino-7-fluorobenzo[b]thiophene-3-carbonitrile]: the IC50 in experiment [1] is less than 500 nM; in experiment [2], less than 500 nM; in experiment [3], less than 500 nM; in experiment [4], less than 500 nM; in experiment [5], not above 500 nM.
With `C[C@@H]1[C@H](N(C)c2nc(OC[C@@]34CCCN3C[C@H](F)C4)nc3c(F)c(-c4ccc(F)c5sc(N)c(C#N)c45)c(Cl)cc23)CCN1C(=O)n1ccc(C#N)n1` [Compound 126, 1-((2R,3R)-3-((7-(2-amino-3-cyano-7-fluorobenzo[b]thiophen-4-yl)-6-chloro-8-fluoro-2-(((2R,7aS)-2-fluorotetrahydro-1H-pyrrolizin-7a(5H)-yl)methoxy)quinazolin-4-yl)(methyl)amino)-2-methylpyrrolidine-1-carbonyl)-1H-pyrazole-3-carbonitrile], the 50% inhibitory concentration (IC50) is less than 500 nM in experiment [1]; less than 500 nM in experiment [2]; less than 500 nM in experiment [3]; less than 500 nM in experiment [4]; not above 500 nM in experiment [5].
As to `Cc1nc(C)n(C(=O)N2CC[C@@H](N(C)c3nc(OC[C@@]45CCCN4C[C@H](F)C5)nc4c(F)c(-c5ccc(F)c6sc(N)c(C#N)c56)c(Cl)cc34)[C@H]2C)c1C` [Compound 127, 2-amino-4-(6-chloro-8-fluoro-2-(((2R,7aS)-2-fluorotetrahydro-1H-pyrrolizin-7a(5H)-yl)methoxy)-4-(methyl((2R,3R)-2-methyl-1-(2,4,5-trimethyl-1H-imidazole-1-carbonyl)pyrrolidin-3-yl)amino)quinazolin-7-yl)-7-fluorobenzo[b]thiophene-3-carbonitrile], the half-maximal inhibitory concentration (IC50) in experiment [1] is less than 500 nM; in experiment [2], less than 500 nM; in experiment [3], less than 500 nM; in experiment [4] it was less than 500 nM; in experiment [5] it was not above 500 nM.
Consider `Cc1cn(C(=O)N2CC(F)(CN(C)c3nc(OC[C@@]45CCCN4C[C@H](F)C5)nc4c(F)c(-c5ccc(F)c6sc(N)c(C#N)c56)c(Cl)cc34)C2)cn1` [Compound 128, 2-amino-4-(6-chloro-8-fluoro-4-(((3-fluoro-1-(4-methyl-1H-imidazole-1-carbonyl)azetidin-3-yl)methyl)(methyl)amino)-2-(((2R,7aS)-2-fluorotetrahydro-1H-pyrrolizin-7a(5H)-yl)methoxy)quinazolin-7-yl)-7-fluorobenzo[b]thiophene-3-carbonitrile], for which the half-inhibitory concentration (IC50) in experiment [1] is less than 500 nM; in experiment [2] it was less than 500 nM; in experiment [3], less than 500 nM; in experiment [4] it was less than 500 nM; in experiment [5] it was not above 500 nM.
Regarding `CCN(c1nc(OC[C@@]23CCCN2C[C@H](F)C3)nc2c(F)c(-c3ccc(F)c4sc(N)c(C#N)c34)c(Cl)cc12)[C@@H]1CCN(C(=O)n2cc(Cl)nc2C)[C@@H]1C` [Compound 130, 2-amino-4-(6-chloro-4-(((2R,3R)-1-(4-chloro-2-methyl-1H-imidazole-1-carbonyl)-2-methylpyrrolidin-3-yl)(ethyl)amino)-8-fluoro-2-(((2R,7aS)-2-fluorotetrahydro-1H-pyrrolizin-7a(5H)-yl)methoxy)quinazolin-7-yl)-7-fluorobenzo[b]thiophene-3-carbonitrile], the IC50 is less than 500 nM in experiment [1]; less than 500 nM in experiment [2]; less than 500 nM in experiment [3]; less than 500 nM in experiment [4]; not above 500 nM in experiment [5].
`Cc1ncn(C(=O)N2C[C@]3(CCCCN(c4nc(OC[C@@]56CCCN5C[C@H](F)C6)nc5c(F)c(-c6ccc(F)c7sc(N)c(C#N)c67)c(Cl)cc45)C3)[C@H]2C)c1C` [Compound 131, 2-amino-4-(6-chloro-4-((1R,4R)-2-(4,5-dimethyl-1H-imidazole-1-carbonyl)-1-methyl-2,6-diazaspiro[3.6]decan-6-yl)-8-fluoro-2-(((2R,7aS)-2-fluorotetrahydro-1H-pyrrolizin-7a(5H)-yl)methoxy)quinazolin-7-yl)-7-fluorobenzo[b]thiophene-3-carbonitrile]: the half-inhibitory concentration (IC50) was less than 500 nM in experiment [1]; less than 500 nM in experiment [2]; less than 500 nM in experiment [3]; less than 500 nM in experiment [4]; not above 500 nM in experiment [5].
Consider `CC[C@@H]1[C@H](N(C)c2nc(OC[C@@]34CCCN3C[C@H](F)C4)nc3c(F)c(-c4ccc(F)c5sc(N)c(C#N)c45)c(Cl)cc23)CCN1C(=O)n1cnc(F)n1` [Compound 134, 2-amino-4-(6-chloro-4-(((2R,3R)-2-ethyl-1-(3-fluoro-1H-1,2,4-triazole-1-carbonyl)pyrrolidin-3-yl)(methyl)amino)-8-fluoro-2-(((2R,7aS)-2-fluorotetrahydro-1H-pyrrolizin-7a(5H)-yl)methoxy)quinazolin-7-yl)-7-fluorobenzo[b]thiophene-3-carbonitrile], for which the half-maximal inhibitory concentration (IC50) in experiment [1] was less than 500 nM; in experiment [2] it was less than 500 nM; in experiment [3], less than 500 nM; in experiment [4], less than 500 nM; in experiment [5] it was not above 500 nM.
With `C[C@@H]1[C@H](N(C)c2nc(OC[C@@]34CCCN3C[C@H](F)C4)nc3c(F)c(-c4ccc(F)c5sc(N)c(C#N)c45)c(Cl)cc23)CCN1C(=O)n1cnc(C2CC2)c1` [Compound 135, 2-amino-4-(6-chloro-4-(((2R,3R)-1-(4-cyclopropyl-1H-imidazole-1-carbonyl)-2-methylpyrrolidin-3-yl)(methyl)amino)-8-fluoro-2-(((2R,7aS)-2-fluorotetrahydro-1H-pyrrolizin-7a(5H)-yl)methoxy)quinazolin-7-yl)-7-fluorobenzo[b]thiophene-3-carbonitrile], the IC50 in experiment [1] is less than 500 nM; in experiment [2] it was less than 500 nM; in experiment [3], less than 500 nM; in experiment [4], less than 500 nM; in experiment [5] it was not above 500 nM.
`CCN(c1nc(OC[C@@]23CCCN2C[C@H](F)C3)nc2c(F)c(-c3ccc(F)c4sc(N)c(C#N)c34)c(Cl)cc12)[C@@H]1CCN(C(=O)n2ccc(C#N)n2)[C@@H]1C` [Compound 136, 1-((2R,3R)-3-((7-(2-amino-3-cyano-7-fluorobenzo[b]thiophen-4-yl)-6-chloro-8-fluoro-2-(((2R,7aS)-2-fluorotetrahydro-1H-pyrrolizin-7a(5H)-yl)methoxy)quinazolin-4-yl)(ethyl)amino)-2-methylpyrrolidine-1-carbonyl)-1H-pyrazole-3-carbonitrile]: the IC50 in experiment [1] is less than 500 nM; in experiment [2] it was less than 500 nM; in experiment [3] it was less than 500 nM; in experiment [4], less than 500 nM; in experiment [5], not above 500 nM.
With `CCN(c1nc(OC[C@@]23CCCN2C[C@H](F)C3)nc2c(F)c(-c3ccc(F)c4sc(N)c(C#N)c34)c(Cl)cc12)[C@@H]1CCN(C(=O)n2cc(C)nc2Cl)[C@@H]1C` [Compound 137, 2-amino-4-(6-chloro-4-(((2R,3R)-1-(2-chloro-4-methyl-1H-imidazole-1-carbonyl)-2-methylpyrrolidin-3-yl)(ethyl)amino)-8-fluoro-2-(((2R,7aS)-2-fluorotetrahydro-1H-pyrrolizin-7a(5H)-yl)methoxy)quinazolin-7-yl)-7-fluorobenzo[b]thiophene-3-carbonitrile], the IC50 was less than 500 nM in experiment [1]; less than 500 nM in experiment [2]; less than 500 nM in experiment [3]; less than 500 nM in experiment [4]; not above 500 nM in experiment [5].
